Experimental data taken from patent publication US9896659B2, “Methods, kits, and compositions for stem cell self-renewal” (STOWERS INSTITUTE FOR MEDICAL RESEARCH, priority 2011, dated 2018).

Test system: lethally irradiated recipients
Experiment: Limiting-dilution competitive repopulating unit (CRU) assay
Type: in vivo, mouse
Conditions: CHIR99021 versus ST media (2/0.4)
Description: FIGS. 27A-C show ex vivo expansion of normal, long-term repopulating HSC. MNCs containing a known quantity of LSK Flk2^− cells were cultured for 14 days with and without CHIR99021. The cultured progeny of MNCs containing a pre-culture dosage of 0.1, 0.3 or 1.0 LSK Flk2^− cells were transplanted into lethally irradiated recipients along with 1×10^5 rescue/competitor cells (n=10 for each of 6 groups). Peripheral blood was analyzed at 16 weeks post-transplant and competitive repopulating unit (CRU) frequency was determined using L-Calc software (Stem Cell Technologies, Inc.) based on Poisson statistics (Zhang, C. C. & Lodish, H. F. Murine hematopoietic stem cells change their surface phenotype during ex vivo expansion. Blood, Vol. 105, pages 4314-4320 (2005); Miller, C. L. & Eaves, C. J. Expansion in vitro of adult murine hematopoietic stem cells with transplantable lympho-myeloid reconstituting ability. Proceedings of the National Academy of Sciences of the United States of America, Vol. 94, pages 13648-13653 (1997)). […] Peripheral blood was analyzed for percent donor repopulation at 16 weeks post-1°, 2°, and 3° transplant (upper panels) and percent mature donor-derived B, T and myeloid cells (lower panels). […]

## Cc1c[nH]c(-c2cnc(NCCNc3ccc(C#N)cn3)nc2-c2ccc(Cl)cc2Cl)n1 [CHIR99021]
  Increase of CRU frequency: 5 fold
